Assay results: US6737383B1, “Herbicidal oxadiazolidines” (priority 1999, dated 2004)

Columns and labels:
surinam grass = assay: Test B pre/postemergence surinam grass; format: in vivo, Brachiaria decumbens
Outline: (§1)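 Test chemicals in a non-phytotoxic solvent mixture with surfactant were sprayed preemergence onto planted seeds and postemergence onto plants 2 to 18 cm tall (1- to 4-leaf stage). After twelve to sixteen days in a greenhouse, injury was visually rated against untreated controls from 0 (no effect) to 10 (complete control).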

bedstraw = assay: Test B pre/postemergence bedstraw; format: in vivo, Galium aparine
Outline: as §1

duck salad = assay: Test B flood test duck salad; format: in vivo, Heteranthera limosa
Outline: (§2)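 Read-out is a visual response score from 0 (no effect) to 10 (complete control), assigned by comparison with untreated controls. Treatment was applied at the 2-leaf stage, and plants stayed in the greenhouse for twelve to sixteen days before scoring.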

corn = assay: Test B pre/postemergence corn; format: in vivo, Zea mays
Outline: as §1

cocklebur = assay: Test B pre/postemergence cocklebur; format: in vivo, Xanthium strumarium
Outline: as §1

wild oat = assay: Test B pre/postemergence wild oat; format: in vivo, Avena fatua
Outline: as §1

wheat = assay: Test B pre/postemergence wheat; format: in vivo, Triticum aestivum
Outline: as §1

smallflower flatsedge = assay: Test B flood test smallflower flatsedge; format: in vivo, Cyperus difformis
Outline: as §2

rice = assay: Test B flood test rice; format: in vivo, Oryza sativa
Outline: as §2

blackgrass = assay: Test B pre/postemergence blackgrass; format: in vivo, Alopecurus myosuroides
Outline: as §1

velvetleaf = assay: Test B pre/postemergence velvetleaf; format: in vivo, Abutilon theophrasti
Outline: as §1

bamyardgrass = assay: Test B flood test barnyardgrass; format: in vivo, Echinochloa crus-galli
Outline: as §2

sugar beet = assay: Test B pre/postemergence sugar beet; format: in vivo, Beta vulgaris
Outline: as §1

crabgrass = assay: Test B pre/postemergence crabgrass; format: in vivo, Digitaria sanguinalis
Outline: as §1

soybean = assay: Test B pre/postemergence soybean; format: in vivo, Glycine max
Outline: as §1

purple nutsedge = assay: Test B pre/postemergence purple nutsedge; format: in vivo, Cyperus rotundus; conditions: Preemergence
Outline: as §1

rape = assay: Test B pre/postemergence rape; format: in vivo, Brassica napus
Outline: as §1

[1] = Postemergence, Rate 250 g/ha, scale 0 to 10, 0 no effect, 10 complete control
[2] = Postemergence, Rate 1000 g/ha, scale 0 to 10 (0 no effect, 10 complete control)
[3] = Preemergence, Rate 125 g/ha, scale 0 to 10 (0 no effect, 10 complete control)
[4] = Preemergence, Rate 250 g/ha, scale of 0 to 10 where 0 is no effect and 10 is complete control
[5] = Preemergence, Rate 500 g/ha, scale 0 (no effect) to 10 (complete control)
[6] = Rate 125 g/ha, Postemergence, scale 0 to 10, 0 no effect, 10 complete control
[7] = Rate 500 g/ha, Postemergence, 0 to 10 scale (0 no effect, 10 complete control)
[8] = Rate 1000 g/ha, Preemergence, scale 0 to 10 (0 no effect, 10 complete control)
[9] = Rate 125 g/ha, Postemergence section (flood test species), scale 0 to 10, 0 no effect, 10 complete control
[10] = Rate 500 g/ha, Postemergence section of Table B, 0 to 10 scale (0 no effect, 10 complete control)
[11] = flood test, listed under Postemergence, Rate 250 g/ha, scale 0 to 10, 0 no effect, 10 complete control

CC(C)N(C(=O)n1oc(=O)n(-c2cc(Cl)cc(Cl)c2)c1=O)C1=CCOCC1 [Compound 9]
B. signalgrass plant response rating (surinam grass; [1]): 0
B. signalgrass plant response rating (surinam grass; [2]): 0
Plant response rating, B. signalgrass (surinam grass; [3]): 0
Plant response rating, B. signalgrass (surinam grass; [4]): 0
B. signalgrass plant response rating (surinam grass; [5]): 0
B. signalgrass plant response rating (surinam grass; [6]): 0
B. signalgrass plant response rating (surinam grass; [7]): 0
Plant response rating, B. signalgrass (surinam grass; [8]): 0
Bedstraw plant response rating (bedstraw; [1]): 0
Plant response rating, Bedstraw (bedstraw; [3]): 0
Plant response rating, Bedstraw (bedstraw; [4]): 0
Bedstraw plant response rating (bedstraw; [5]): 0
Bedstraw plant response rating (bedstraw; [6]): 0
Bedstraw plant response rating (bedstraw; [7]): 0
Plant response rating, Bedstraw (bedstraw; [8]): 0
Ducksalad plant response rating (duck salad; [2]): 0
Ducksalad plant response rating (duck salad; [9]): 0
Ducksalad plant response rating (duck salad; [10]): 0
Ducksalad plant response rating (duck salad; [11]): 0
Corn plant response rating (corn; [1]): 0
Corn plant response rating (corn; [2]): 0
Plant response rating, Corn (corn; [3]): 0
Plant response rating, Corn (corn; [4]): 0
Corn plant response rating (corn; [5]): 0
Corn plant response rating (corn; [6]): 0
Corn plant response rating (corn; [7]): 0
Plant response rating, Corn (corn; [8]): 3
Cocklebur plant response rating (cocklebur; [1]): 0
Cocklebur plant response rating (cocklebur; [2]): 4
Plant response rating, Cocklebur (cocklebur; [3]): 0
Plant response rating, Cocklebur (cocklebur; [4]): 0
Cocklebur plant response rating (cocklebur; [5]): 0
Cocklebur plant response rating (cocklebur; [6]): 0
Cocklebur plant response rating (cocklebur; [7]): 0
Plant response rating, Cocklebur (cocklebur; [8]): 0
Wild oats plant response rating (wild oat; [1]): 0
Wild oats plant response rating (wild oat; [2]): 0
Plant response rating, Wild oats (wild oat; [3]): 0
Plant response rating, Wild oats (wild oat; [4]): 0
Wild oats plant response rating (wild oat; [5]): 0
Wild oats plant response rating (wild oat; [6]): 0
Plant response rating, Wild oats (wild oat; [8]): 0
Wheat plant response rating (wheat; [1]): 0
Wheat plant response rating (wheat; [2]): 0
Plant response rating, Wheat (wheat; [3]): 0
Plant response rating, Wheat (wheat; [4]): 0
Wheat plant response rating (wheat; [5]): 0
Wheat plant response rating (wheat; [6]): 0
Plant response rating, Wheat (wheat; [8]): 0
S. Flatsedge plant response rating (smallflower flatsedge; [2]): 0
S. Flatsedge plant response rating (smallflower flatsedge; [9]): 0
S. Flatsedge plant response rating (smallflower flatsedge; [11]): 0
Rice plant response rating (rice; [2]): 0
Rice plant response rating (rice; [9]): 0
Rice plant response rating (rice; [10]): 0
Rice plant response rating (rice; [11]): 0
Blackgrass plant response rating (blackgrass; [1]): 0
Blackgrass plant response rating (blackgrass; [2]): 3
Plant response rating, Blackgrass (blackgrass; [3]): 0
Plant response rating, Blackgrass (blackgrass; [4]): 0
Blackgrass plant response rating (blackgrass; [5]): 0
Blackgrass plant response rating (blackgrass; [6]): 0
Blackgrass plant response rating (blackgrass; [7]): 2
Plant response rating, Blackgrass (blackgrass; [8]): 0
Velvetleaf plant response rating (velvetleaf; [1]): 0
Velvetleaf plant response rating (velvetleaf; [2]): 0
Plant response rating, Velvetleaf (velvetleaf; [3]): 0
Plant response rating, Velvetleaf (velvetleaf; [4]): 0
Velvetleaf plant response rating (velvetleaf; [5]): 0
Velvetleaf plant response rating (velvetleaf; [6]): 0
Plant response rating, Velvetleaf (velvetleaf; [8]): 0
Barnyardgrass plant response rating (bamyardgrass; [2]): 0
Barnyardgrass plant response rating (bamyardgrass; [9]): 0
Barnyardgrass plant response rating (bamyardgrass; [10]): 0
Barnyardgrass plant response rating (bamyardgrass; [11]): 0
Sugarbeets plant response rating (sugar beet; [1]): 0
Sugarbeets plant response rating (sugar beet; [2]): 0
Plant response rating, Sugarbeets (sugar beet; [3]): 0
Plant response rating, Sugarbeets (sugar beet; [4]): 0
Sugarbeets plant response rating (sugar beet; [5]): 0
Sugarbeets plant response rating (sugar beet; [6]): 0
Plant response rating, Sugarbeets (sugar beet; [8]): 0
Crabgrass plant response rating (crabgrass; [1]): 0
Crabgrass plant response rating (crabgrass; [2]): 0
Plant response rating, Crabgrass (crabgrass; [3]): 3
Plant response rating, Crabgrass (crabgrass; [4]): 0
Crabgrass plant response rating (crabgrass; [5]): 3
Crabgrass plant response rating (crabgrass; [6]): 0
Crabgrass plant response rating (crabgrass; [7]): 0
Plant response rating, Crabgrass (crabgrass; [8]): 3
Soybean plant response rating (soybean; [1]): 0
Soybean plant response rating (soybean; [2]): 1
Plant response rating, Soybean (soybean; [3]): 0
Plant response rating, Soybean (soybean; [4]): 0
Soybean plant response rating (soybean; [5]): 0
Soybean plant response rating (soybean; [6]): 0
Plant response rating, Soybean (soybean; [8]): 0
Plant response rating, Nutsedge (purple nutsedge; Rate 125 g/ha, scale 0 to 10 (0 no effect, 10 complete control)): 0
Plant response rating, Nutsedge (purple nutsedge; Rate 250 g/ha, scale of 0 to 10 where 0 is no effect and 10 is complete control): 0
Nutsedge plant response rating (purple nutsedge; Rate 500 g/ha, scale 0 (no effect) to 10 (complete control)): 0
Plant response rating, Nutsedge (purple nutsedge; Rate 1000 g/ha, scale 0 to 10 (0 no effect, 10 complete control)): 0
Rape plant response rating (rape; [1]): 0
Rape plant response rating (rape; [2]): 0
Plant response rating, Rape (rape; [3]): 0
Plant response rating, Rape (rape; [4]): 0
Rape plant response rating (rape; [5]): 0
Rape plant response rating (rape; [6]): 0
Rape plant response rating (rape; [7]): 0
Plant response rating, Rape (rape; [8]): 0
